The text below walks through data of US6239138A, “Vitronectin receptor antagonist” (SmithKline Beecham Corporation, priority 1999, dated 2001).

Test [1] deals with T1, αvβ3 (vitronectin receptor) (Homo sapiens, UniProt P05106+P06756).
T1 construct: Human placenta or human platelet αvβ3; from tissue; host or cells: human placenta or human platelets
The test is described as follows: Solid-phase [3H]-SK&F-107260 binding to αvβ3 (inhibition of vitronectin binding). The settings on record: [3H]-SK&F-107260 as ligand, 5.0 nM; human placenta or platelet αvβ3. As for the experimental part:
Solid-Phase [^3 H]-SK&F-107260 Binding to αvβ3 : Human placenta or human platelet αvβ3 (0.1-0.3 mg/mL) in buffer T (containing 2 mM CaCl2 and 1% octylglucoside) was diluted with buffer T containing 1 mM CaCl2, 1 mM MnCl2, 1 mM MgCl2 (buffer A) and 0.05% NaN3, and then immediately added to 96-well ELISA plates (Corning, New York, N.Y.) at 0.1 mL per well. 0.1-0.2 ,g of αvβ3 was added per well. The plates were incubated overnight at 4° C. At the time of the experiment, the wells were washed once with buffer A and were incubated with 0.1 mL of 3.5% bovine serum albumin in the same buffer for 1 hr at room temperature. Following incubation the wells were aspirated completely and washed twice with 0.2 mL buffer A. […]
The plates were incubated for 1 hr at room temperature. […] The receptors were solubilized with 0.1 mL of 1% SDS and the bound [^3 H]-SK&F-107260 was determined by liquid scintillation counting with the addition of 3 mL Ready Safe in a Beckman LS Liquid Scintillation Counter, with 40% efficiency. Nonspecific binding of [^3 H]-SK&F-107260 was determined in the presence of 2 LM SK&F-107260 and was consistently less than 1% of total radioligand input. […] The Ki (dissociation constant of the antagonist) was calculated according to the equation: Ki =IC50 /(1+L/Kd), where L and Kd were the concentration and the dissociation constant of [^3 H]-SK&F-107260, respectively.

Test [2] relates to bone resorption. As to conditions: Sato et al., J. Cell Biol. 1990; cited from earlier work.
A further test relates to osteoclasts. As to conditions: Sato et al. 1990 (echistatin); Bertolini et al. (cyclic peptide); cited from earlier work.
Test [3] relates to bone resorption. The settings on record: rat; Fisher et al., Endocrinology 1993; cited from earlier work.

pKi: −log10 of the molar value.

T1 sequence (P06756 31-889 limits assumed): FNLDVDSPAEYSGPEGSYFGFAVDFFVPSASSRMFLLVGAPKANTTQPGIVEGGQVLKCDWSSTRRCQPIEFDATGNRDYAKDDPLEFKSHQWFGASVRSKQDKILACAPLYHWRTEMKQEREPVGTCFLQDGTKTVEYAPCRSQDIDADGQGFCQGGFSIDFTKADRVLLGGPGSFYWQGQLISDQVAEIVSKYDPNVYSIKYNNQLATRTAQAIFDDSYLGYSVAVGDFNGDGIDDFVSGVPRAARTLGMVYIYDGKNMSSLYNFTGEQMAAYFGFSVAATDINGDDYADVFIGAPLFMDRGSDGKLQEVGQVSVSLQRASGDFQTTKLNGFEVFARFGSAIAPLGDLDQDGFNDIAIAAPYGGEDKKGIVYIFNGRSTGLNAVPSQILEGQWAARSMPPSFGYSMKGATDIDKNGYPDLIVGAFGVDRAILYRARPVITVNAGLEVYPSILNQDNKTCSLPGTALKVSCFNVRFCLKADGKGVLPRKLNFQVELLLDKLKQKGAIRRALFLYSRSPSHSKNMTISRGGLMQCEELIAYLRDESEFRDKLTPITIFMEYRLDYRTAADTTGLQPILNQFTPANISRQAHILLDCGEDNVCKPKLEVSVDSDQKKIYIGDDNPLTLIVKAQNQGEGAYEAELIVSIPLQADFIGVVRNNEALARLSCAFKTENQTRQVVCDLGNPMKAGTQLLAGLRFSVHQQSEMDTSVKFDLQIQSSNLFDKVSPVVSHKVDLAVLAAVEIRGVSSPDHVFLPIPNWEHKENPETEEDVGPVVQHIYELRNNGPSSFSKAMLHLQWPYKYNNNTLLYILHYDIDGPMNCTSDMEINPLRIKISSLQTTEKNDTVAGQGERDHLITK
T1 sequence (P06756 891-1048 partner limits assumed): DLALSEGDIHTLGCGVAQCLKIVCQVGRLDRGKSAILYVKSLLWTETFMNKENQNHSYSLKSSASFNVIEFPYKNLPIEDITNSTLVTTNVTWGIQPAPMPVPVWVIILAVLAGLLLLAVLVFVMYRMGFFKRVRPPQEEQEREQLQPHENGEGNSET
T1 sequence (P05106 27-788): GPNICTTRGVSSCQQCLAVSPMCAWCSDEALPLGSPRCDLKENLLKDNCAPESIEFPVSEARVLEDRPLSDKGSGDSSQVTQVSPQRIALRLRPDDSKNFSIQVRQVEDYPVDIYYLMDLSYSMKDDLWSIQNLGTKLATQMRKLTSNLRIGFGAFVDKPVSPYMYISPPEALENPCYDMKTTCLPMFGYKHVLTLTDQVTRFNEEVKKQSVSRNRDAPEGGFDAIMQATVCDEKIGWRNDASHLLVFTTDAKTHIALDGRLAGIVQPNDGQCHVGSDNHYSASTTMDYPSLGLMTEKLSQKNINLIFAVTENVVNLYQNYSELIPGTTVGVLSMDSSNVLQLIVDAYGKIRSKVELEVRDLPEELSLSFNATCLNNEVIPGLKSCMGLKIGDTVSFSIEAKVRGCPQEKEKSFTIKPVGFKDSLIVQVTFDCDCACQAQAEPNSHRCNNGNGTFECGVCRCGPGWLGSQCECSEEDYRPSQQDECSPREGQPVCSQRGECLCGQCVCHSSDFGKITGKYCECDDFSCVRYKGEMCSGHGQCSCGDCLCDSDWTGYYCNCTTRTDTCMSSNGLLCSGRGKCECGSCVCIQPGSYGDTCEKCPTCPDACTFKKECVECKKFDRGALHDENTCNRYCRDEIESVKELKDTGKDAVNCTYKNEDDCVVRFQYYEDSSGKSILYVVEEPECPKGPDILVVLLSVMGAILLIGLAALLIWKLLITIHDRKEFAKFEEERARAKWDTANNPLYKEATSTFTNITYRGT

For `O=C(O)CC1Cc2ccc(OCCCNc3ccccn3)cc2CCC1=O` (racemic) [(±)-2-(2-Pyridylamino)propoxy-6,7,8,9-tetrahydro-7-oxo-5H-benzocycloheptenyl-6-acetic acid], the negative-log Ki (pKi) in test [1] is approximately 7.64.

As to echistatin, in the test on bone resorption [2], the “inhibition of bone resorption in tissue culture” value is recorded as “potent inhibitor of bone resorption in tissue culture”. Also, in the test with osteoclasts, the “inhibition of attachment of osteoclasts to bone” value is recorded as “inhibits attachment of osteoclasts to bone”. In the test on bone resorption [3], the “inhibition of bone resorption in vivo” value was “inhibits bone resorption in vivo in the rat”.

Consider “cylco-S,S-N^α -acetyl-cysteinyl-N^α -methyl-argininyl-glycyl-aspartyl-penicillamine”, for which the “inhibition of attachment of osteoclasts to bone” value with osteoclasts is “inhibits osteoclast attachment to bone”.

As a reminder, the pKi is the negative decadic logarithm of the Ki, by convention in mol/L. Low values mean a large Ki, high ones a small Ki.
